Experiments:
[1] = target: ATP-binding cassette sub-family C member 2 (Rattus norvegicus, UniProt Q63120); assay: TP_TRANSPORTER: biliary excretion in EHBR rat; assay type: functional, organism-based, Bile; conditions: in vivo
OATP1B3 = target: T1, OATP1B3 (Homo sapiens, UniProt Q9NPD5); assay: TP_TRANSPORTER: transport in OATP1B3-expressing oocytes; assay type: functional, cell-based, Oocyte
T1 sequence (Q9NPD5 whole entry): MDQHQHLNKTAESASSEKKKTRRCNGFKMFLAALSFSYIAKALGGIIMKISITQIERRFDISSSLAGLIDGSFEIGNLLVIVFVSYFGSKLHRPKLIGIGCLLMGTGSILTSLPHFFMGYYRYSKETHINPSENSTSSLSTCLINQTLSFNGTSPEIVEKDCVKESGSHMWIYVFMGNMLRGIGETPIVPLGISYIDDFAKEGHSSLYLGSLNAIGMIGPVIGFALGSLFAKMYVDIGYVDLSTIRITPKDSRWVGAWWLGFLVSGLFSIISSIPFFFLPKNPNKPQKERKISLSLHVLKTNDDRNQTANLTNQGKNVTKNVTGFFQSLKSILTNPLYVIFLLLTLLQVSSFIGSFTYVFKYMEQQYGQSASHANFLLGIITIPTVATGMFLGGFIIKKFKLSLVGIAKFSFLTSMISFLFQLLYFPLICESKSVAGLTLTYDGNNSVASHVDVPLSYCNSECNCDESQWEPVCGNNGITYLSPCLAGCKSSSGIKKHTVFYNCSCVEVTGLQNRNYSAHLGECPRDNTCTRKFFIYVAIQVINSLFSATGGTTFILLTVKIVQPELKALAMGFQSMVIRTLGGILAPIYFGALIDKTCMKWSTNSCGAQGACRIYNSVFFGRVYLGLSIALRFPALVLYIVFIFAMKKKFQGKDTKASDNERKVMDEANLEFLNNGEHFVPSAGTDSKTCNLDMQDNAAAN

[2] = target: T2, ATP-binding cassette sub-family C member 2 (Homo sapiens, UniProt Q92887); assay: TP_TRANSPORTER: transport in hCMV cells; assay type: functional, cell membranes, Canalicular membrane vesicle
T2 sequence (Q92887 whole entry): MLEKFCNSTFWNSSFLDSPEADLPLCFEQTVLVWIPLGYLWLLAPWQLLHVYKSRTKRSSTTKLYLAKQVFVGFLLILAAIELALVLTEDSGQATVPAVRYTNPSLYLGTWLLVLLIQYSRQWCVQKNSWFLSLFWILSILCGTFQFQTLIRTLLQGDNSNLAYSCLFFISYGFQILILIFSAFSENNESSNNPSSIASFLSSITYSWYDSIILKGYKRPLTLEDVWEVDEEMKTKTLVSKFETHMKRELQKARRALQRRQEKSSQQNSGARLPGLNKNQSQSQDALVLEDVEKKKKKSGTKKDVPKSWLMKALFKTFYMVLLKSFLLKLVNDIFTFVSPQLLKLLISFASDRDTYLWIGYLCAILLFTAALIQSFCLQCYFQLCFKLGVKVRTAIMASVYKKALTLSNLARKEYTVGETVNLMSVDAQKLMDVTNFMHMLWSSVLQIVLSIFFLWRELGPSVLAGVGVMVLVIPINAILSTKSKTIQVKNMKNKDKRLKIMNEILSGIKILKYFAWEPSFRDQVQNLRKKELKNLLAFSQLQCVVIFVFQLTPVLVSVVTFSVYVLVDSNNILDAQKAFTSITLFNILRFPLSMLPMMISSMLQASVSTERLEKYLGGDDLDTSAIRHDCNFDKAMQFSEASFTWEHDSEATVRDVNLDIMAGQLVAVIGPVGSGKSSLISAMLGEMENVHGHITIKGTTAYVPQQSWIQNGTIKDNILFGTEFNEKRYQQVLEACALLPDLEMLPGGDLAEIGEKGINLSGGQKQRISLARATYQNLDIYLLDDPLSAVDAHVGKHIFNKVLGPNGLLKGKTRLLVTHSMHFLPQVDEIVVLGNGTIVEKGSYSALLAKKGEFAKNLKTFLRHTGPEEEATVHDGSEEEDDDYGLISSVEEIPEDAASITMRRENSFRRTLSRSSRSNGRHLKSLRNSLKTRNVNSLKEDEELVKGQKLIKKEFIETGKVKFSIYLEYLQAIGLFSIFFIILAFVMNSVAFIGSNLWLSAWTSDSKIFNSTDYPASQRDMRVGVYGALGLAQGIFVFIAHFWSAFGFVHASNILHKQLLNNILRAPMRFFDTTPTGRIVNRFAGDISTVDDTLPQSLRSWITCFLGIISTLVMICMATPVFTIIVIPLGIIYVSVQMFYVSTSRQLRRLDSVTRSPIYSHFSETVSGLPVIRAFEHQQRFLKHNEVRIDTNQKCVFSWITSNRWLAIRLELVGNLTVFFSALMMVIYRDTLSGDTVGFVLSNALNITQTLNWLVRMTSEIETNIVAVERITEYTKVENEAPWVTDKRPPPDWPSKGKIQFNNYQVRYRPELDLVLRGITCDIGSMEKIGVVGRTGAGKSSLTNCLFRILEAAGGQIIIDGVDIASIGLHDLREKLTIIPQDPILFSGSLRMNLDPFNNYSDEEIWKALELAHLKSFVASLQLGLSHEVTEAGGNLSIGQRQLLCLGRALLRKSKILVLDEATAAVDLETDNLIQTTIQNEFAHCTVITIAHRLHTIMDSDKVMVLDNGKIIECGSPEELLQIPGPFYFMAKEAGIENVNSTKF

[3] = target: T2, ATP-binding cassette sub-family C member 2; assay: TP_TRANSPORTER: transport in MRP2-expressing vesicles; assay type: functional, subcellular
[4] = target: T3, Hepatic sodium/bile acid cotransporter (Homo sapiens, UniProt Q14973); assay: TP_TRANSPORTER: transport in NTCP-transfected HEK-293 cells; assay type: functional, cell-based; conditions: hek293
T3 sequence (Q14973 whole entry): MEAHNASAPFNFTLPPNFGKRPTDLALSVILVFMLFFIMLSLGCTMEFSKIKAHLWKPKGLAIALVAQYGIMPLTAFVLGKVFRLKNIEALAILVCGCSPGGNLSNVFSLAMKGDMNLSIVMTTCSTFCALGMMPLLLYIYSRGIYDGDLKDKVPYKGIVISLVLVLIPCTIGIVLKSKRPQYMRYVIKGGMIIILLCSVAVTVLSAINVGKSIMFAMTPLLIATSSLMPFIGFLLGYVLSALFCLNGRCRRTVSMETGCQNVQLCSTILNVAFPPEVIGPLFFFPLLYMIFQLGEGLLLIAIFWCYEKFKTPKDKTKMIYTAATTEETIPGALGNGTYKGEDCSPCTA

[5] = substrate: CCCc1nc(C(C)(C)O)c(C(=O)O)n1Cc1ccc(-c2ccccc2-c2nnn[nH]2)cc1; assay: TP_TRANSPORTER: transport in OATP1B1-expressing oocytes; assay type: functional, cell-based, Oocyte

Chain of ATP-binding cassette sub-family C member 2 (Rattus norvegicus, UniProt Q63120) (Q63120 whole entry): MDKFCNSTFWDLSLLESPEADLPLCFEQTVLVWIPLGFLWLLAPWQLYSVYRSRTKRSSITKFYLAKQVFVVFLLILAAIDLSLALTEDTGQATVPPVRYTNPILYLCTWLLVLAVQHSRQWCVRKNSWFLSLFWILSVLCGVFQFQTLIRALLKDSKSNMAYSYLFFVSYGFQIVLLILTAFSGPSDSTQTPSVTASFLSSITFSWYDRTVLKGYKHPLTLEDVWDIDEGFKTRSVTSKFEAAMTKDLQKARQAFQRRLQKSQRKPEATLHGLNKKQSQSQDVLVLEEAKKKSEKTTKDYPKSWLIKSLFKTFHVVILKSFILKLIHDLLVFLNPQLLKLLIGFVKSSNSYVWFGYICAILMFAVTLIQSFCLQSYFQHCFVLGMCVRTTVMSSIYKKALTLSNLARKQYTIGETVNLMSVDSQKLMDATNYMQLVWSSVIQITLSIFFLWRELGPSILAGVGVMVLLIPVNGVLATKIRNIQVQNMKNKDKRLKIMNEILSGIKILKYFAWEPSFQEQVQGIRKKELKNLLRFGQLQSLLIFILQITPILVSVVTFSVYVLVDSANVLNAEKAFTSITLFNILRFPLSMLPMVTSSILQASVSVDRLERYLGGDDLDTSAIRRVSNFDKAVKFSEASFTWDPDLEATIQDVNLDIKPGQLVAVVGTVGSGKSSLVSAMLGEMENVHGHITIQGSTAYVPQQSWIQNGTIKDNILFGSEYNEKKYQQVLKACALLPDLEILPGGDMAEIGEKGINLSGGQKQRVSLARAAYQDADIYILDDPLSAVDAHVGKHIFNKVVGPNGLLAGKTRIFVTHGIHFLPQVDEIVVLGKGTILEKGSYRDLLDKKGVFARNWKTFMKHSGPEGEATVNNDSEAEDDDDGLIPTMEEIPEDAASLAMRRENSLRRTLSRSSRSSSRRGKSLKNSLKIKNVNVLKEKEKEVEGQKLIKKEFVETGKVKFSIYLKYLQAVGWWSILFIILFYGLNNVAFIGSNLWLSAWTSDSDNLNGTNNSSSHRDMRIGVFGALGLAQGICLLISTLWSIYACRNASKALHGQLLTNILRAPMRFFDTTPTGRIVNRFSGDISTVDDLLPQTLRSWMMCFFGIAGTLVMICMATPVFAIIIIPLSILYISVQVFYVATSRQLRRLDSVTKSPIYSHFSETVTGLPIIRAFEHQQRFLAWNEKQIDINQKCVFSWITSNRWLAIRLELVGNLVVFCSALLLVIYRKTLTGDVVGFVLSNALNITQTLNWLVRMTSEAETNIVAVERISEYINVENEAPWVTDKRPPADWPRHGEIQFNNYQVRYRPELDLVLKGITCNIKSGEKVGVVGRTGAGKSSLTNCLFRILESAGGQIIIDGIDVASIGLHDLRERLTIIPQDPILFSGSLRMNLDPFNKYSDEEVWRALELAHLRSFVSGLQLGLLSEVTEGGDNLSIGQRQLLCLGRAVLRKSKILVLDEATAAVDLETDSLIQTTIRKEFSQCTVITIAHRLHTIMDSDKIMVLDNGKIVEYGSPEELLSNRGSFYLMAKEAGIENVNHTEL

Molecule | Activity [1] | Km (OATP1B3) | Activity [2] | Activity [3] | Activity [4] | Km [5]
CCCc1nc(C(C)(C)O)c(C(=O)O)n1Cc1ccc(-c2ccccc2-c2nnn[nH]2)cc1 [OLMESARTAN] | substrate [+] | 71.8 µM | substrate [+] | substrate [+] | is not a substrate [-] | 
Solute carrier organic anion transporter family member 1B1 (Homo sapiens) (protein) MDQNQHLNKTAEAQPSENKKTRYCNGLKMFLAALSLSFIAKTLGAIIMKSSIIHIERRFEISSSLVGFIDGSFEIGNLLVIVFVSYFGSKLHRPKLIGIGCFIMGIGGVLTALPHFFMGYYRYSKETNINSSENSTSTLSTCLINQILSLNRASPEIVGKGCLKESGSYMWIYVFMGNMLRGIGETPIVPLGLSYIDDFAKEGHSSLYLGILNAIAMIGPIIGFTLGSLFSKMYVDIGYVDLSTIRITPTDSRWVGAWWLNFLVSGLFSIISSIPFFFLPQTPNKPQKERKASLSLHVLETNDEKDQTANLTNQGKNITKNVTGFFQSFKSILTNPLYVMFVLLTLLQVSSYIGAFTYVFKYVEQQYGQPSSKANILLGVITIPIFASGMFLGGYIIKKFKLNTVGIAKFSCFTAVMSLSFYLLYFFILCENKSVAGLTMTYDGNNPVTSHRDVPLSYCNSDCNCDESQWEPVCGNNGITYISPCLAGCKSSSGNKKPIVFYNCSCLEVTGLQNRNYSAHLGECPRDDACTRKFYFFVAIQVLNLFFSALGGTSHVMLIVKIVQPELKSLALGFHSMVIRALGGILAPIYFGALIDTTCIKWSTNNCGTRGSCRTYNSTSFSRVYLGLSSMLRVSSLVLYIILIYAMKKKYQEKDINASENGSVMDEANLESLNKNKHFVPSAGADSETHC |  |  |  |  |  | 42.6 µM
